Common to all, as to assay type: cell-based, Cercopithecidae
Assay [1] has as its target Kappa-type opioid receptor (Homo sapiens, UniProt P41145, E297A). The assay can be described thus: Binding affinity using [3H]diprenorphine as the radioligand against E297A mutant Opioid receptor kappa 1 in COS-7 cells.
The target in assay [2] is Kappa-type opioid receptor (Homo sapiens, UniProt P41145, E297K). Put plainly: Binding affinity using [3H]diprenorphine as the radioligand against E297K mutant Opioid receptor kappa 1 in COS-7 cells.
For assay [3], the target named is T1, Kappa-type opioid receptor (Homo sapiens, UniProt P41145). The assay can be described thus: Binding affinity using [3H]diprenorphine as the radioligand against wild-type Opioid receptor kappa 1 in COS-7 cells.
The target of assay [4] is T2, Mu-type opioid receptor (Homo sapiens, UniProt P35372). The assay can be described thus: Binding affinity using [3H]diprenorphine as the radioligand against wild-type Opioid receptor mu 1 in COS-7 cells.
Assay [5] concerns the target T2, Mu-type opioid receptor. Put plainly: Binding affinity using [3H]diprenorphine as the radioligand against K303E Opioid receptor mu 1 in COS-7 cells.
Assay [6] deals with T1, Kappa-type opioid receptor. Put plainly: Binding affinity using [3H]diprenorphine as the radioligand against wild-type Opioid receptor kappa 1r in COS-7 cells.

T2 sequence (P35372 whole entry): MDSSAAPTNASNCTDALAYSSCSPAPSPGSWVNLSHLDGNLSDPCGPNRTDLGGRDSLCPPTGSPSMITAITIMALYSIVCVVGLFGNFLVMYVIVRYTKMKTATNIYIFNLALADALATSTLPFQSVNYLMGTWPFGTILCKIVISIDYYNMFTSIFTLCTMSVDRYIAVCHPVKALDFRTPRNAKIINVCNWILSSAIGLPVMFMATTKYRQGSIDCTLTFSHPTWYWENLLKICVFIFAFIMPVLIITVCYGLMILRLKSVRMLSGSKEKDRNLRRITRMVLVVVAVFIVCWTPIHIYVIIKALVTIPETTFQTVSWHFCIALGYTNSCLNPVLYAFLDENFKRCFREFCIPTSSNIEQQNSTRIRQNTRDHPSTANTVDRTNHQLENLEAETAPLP
Sequence of Kappa-type opioid receptor (Homo sapiens, UniProt P41145, E297A) (P41145 whole entry E297A): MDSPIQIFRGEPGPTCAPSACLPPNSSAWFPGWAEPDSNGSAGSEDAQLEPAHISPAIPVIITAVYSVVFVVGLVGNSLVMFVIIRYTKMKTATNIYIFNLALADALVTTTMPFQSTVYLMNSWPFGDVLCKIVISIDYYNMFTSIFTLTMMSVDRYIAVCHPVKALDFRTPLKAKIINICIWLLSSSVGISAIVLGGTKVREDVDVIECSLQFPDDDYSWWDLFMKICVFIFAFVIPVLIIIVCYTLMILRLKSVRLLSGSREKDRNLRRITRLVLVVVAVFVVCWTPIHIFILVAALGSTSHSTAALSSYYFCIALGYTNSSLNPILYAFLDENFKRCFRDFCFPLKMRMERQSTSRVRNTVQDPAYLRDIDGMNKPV
T1 sequence (P41145 whole entry): as the sequence (P41145 whole entry E297A) above, with A297E counted along it
Sequence of Kappa-type opioid receptor (Homo sapiens, UniProt P41145, E297K) (P41145 whole entry E297K): as the sequence (P41145 whole entry E297A) above, with A297K counted along it

The term Ki denotes the equilibrium dissociation constant of an inhibitor or competing ligand from its target. Low readings indicate higher affinity, high ones lower affinity. For `CC(=O)N1CC[C@]23c4c5ccc(O)c4O[C@H]2c2[nH]c4c(c2C[C@@]3(O)[C@H]1C5)C[C@@]1(O)[C@H]2Cc3ccc(O)c5c3[C@@]1(CCN2CC1CC1)[C@H]4O5`, the Ki stood at 104 nM in assay [1]; 104 nM in assay [2]; 23.6 nM in assay [3]; 102 nM in assay [4]; 42 nM in assay [5].

As to `CN1CC[C@]23c4c5ccc(O)c4O[C@H]2c2[nH]c4c(c2C[C@@]3(O)[C@H]1C5)C[C@@]1(O)[C@H]2Cc3ccc(O)c5c3[C@@]1(CCN2C)[C@H]4O5`, the Ki is above 1000 nM in assay [1]; above 1000 nM in assay [2]; 21.7 nM in assay [3]; above 1000 nM in assay [4]; 41.7 nM in assay [5].

Turning to `CN1CC[C@]23c4c5ccc(O)c4O[C@H]2c2[nH]c4c(c2C[C@H]3[C@H]1C5)C[C@@]1(O)[C@H]2Cc3ccc(O)c5c3[C@@]1(CCN2CC1CC1)[C@H]4O5`, the Ki in assay [1] is 39.6 nM; in assay [2], 39.9 nM; in assay [3] it was 0.32 nM; in assay [4] it was 40 nM; in assay [5], 0.16 nM.

As to `COc1ccc2c3c1O[C@H]1c4[nH]c5c(c4C[C@@]4(O)[C@@H](C2)N(CC2CC2)CC[C@]314)C[C@@]1(O)[C@H]2Cc3ccc(O)c4c3[C@@]1(CCN2CC1CC1)[C@H]5O4`, the Ki in assay [1] came to 17 nM; in assay [2], 28 nM; in assay [3], 0.39 nM; in assay [4], 276 nM; in assay [5], 2.7 nM.

For the compound `COc1ccc2c3c1O[C@H]1c4[nH]c5c(c4C[C@@]4(O)[C@@H](C2)N(CC2CC2)CC[C@]314)C[C@@]1(O)[C@H]2Cc3ccc(O)c4c3[C@@]1(CCN2C)[C@H]5O4`, the Ki in assay [1] is above 1000 nM; in assay [2], above 1000 nM; in assay [3], 36.3 nM; in assay [4], 165 nM; in assay [5], 52 nM.

For the compound `N=C(N)N1CC[C@]23c4c5ccc(O)c4O[C@H]2c2[nH]c4c(c2C[C@@]3(O)[C@H]1C5)C[C@@]1(O)[C@H]2Cc3ccc(O)c5c3[C@@]1(CCN2CC1CC1)[C@H]4O5`, the Ki was 189 nM in assay [2] and 0.57 nM in assay [6].

These data come from ChEMBL document CHEMBL1133722 (J Med Chem, 2000).
